Test results: PMC9148287, “Cytotoxic and Radiosensitising Effects of a Novel Thioredoxin Reductase Inhibitor in Brain Cancers” (Molecular Neurobiology, 2022)

Assays:
KNS42 cells [1] = assay: Growth assay (cell counts); type: cell-based; settings: Homo sapiens, KNS-42, 2D normoxia
Protocol: (§1) Cells (2 × 10^5) were seeded in six-well plates, allowed to adhere overnight and then treated, in triplicate, with different concentrations of TMZ (0–1000 μM) or IQ10 (0–1 µM) for up to 72 h under normoxic or hypoxic conditions. DMSO was added to the negative control groups at the same volume equivalent to that in the treatment groups. For hypoxic experiments, cells were pre-incubated at 1% O2 for 24 h prior to drug treatment. Cells were then treated with different concentrations of IQ10 for up to an additional 72 h under hypoxia. Normoxic controls were always assessed in parallel to hypoxic-treated groups. Every 24 h after initiating drug treatment, cells were trypsinised and counted using a Countess system. Cell counts were recorded, analysed and plotted over the 72 h period.

SNB19 cells [2] = assay: Growth assay (cell counts); type: cell-based; settings: Homo sapiens, SNB-19, 2D normoxia
Protocol: as §1

UW228-3 cells [3] = assay: Growth assay (cell counts); type: cell-based; settings: Homo sapiens, 2D normoxia
Protocol: as §1

DAOY cells [4] = assay: Growth assay (cell counts); type: cell-based; settings: Homo sapiens, 2D normoxia
Protocol: as §1
(§2) Cells were seeded, in triplicate, in 24-well plates, incubated overnight and transfected with either a pre-designed siRNA directed against human TrxR-1 (SI00050876, target sequence, 5′-[…]-3′, Qiagen) or mock-transfected with a scrambled siRNA (Allstars Negative Control siRNA, Qiagen). Briefly, 2.5 μL of 2 μM siRNA and 4.5 μL HiPerFect transfection reagent (Qiagen) were combined in 100 μL medium (serum and antibiotic free) and incubated at room temperature for 10 min to allow complex formation. Reaction mixtures were then added to 400 μL of fresh medium. Medium was aspirated from wells and replaced with the appropriate 500 μL of transfection solution. After 48 h of incubation, the cells were re-plated, allowed to adhere overnight and treated with various concentrations of IQ10 for an additional 48 h. Growth curve and/or clonogenic survival assays were used as the endpoint to assess the drug effects. Western blotting analysis of TrxR and β-actin (as a loading control) were used to confirm that TrxR expression was suppressed for the duration of the experiment.

SF188 cells [5] = assay: Growth assay (cell counts); type: cell-based; settings: Homo sapiens, SF-188, 2D normoxia
Protocol: as §1, §2

KNS42 cells [6] = assay: Clonogenic survival assay; type: cell-based; settings: Homo sapiens, KNS-42; KNS42, 48 h post-treatment
Protocol: (§3) Cells collected from the growth assay (48 h time point) were counted and plated at low-density, in triplicate, and incubated at 37 °C, 5% CO2, undisturbed, for colony formation. After 12 days (21 days for KNS42), colonies were fixed (50% methanol in PBS), stained (0.5% crystal violet solution) and counted manually. Any cluster of cells greater than 50 in number was counted as a surviving colony. The plating efficiency (PE) was calculated as number of control colonies formed/number of control cells seeded. For single-agent treatment, drug or radiation, the surviving fraction (SF) was calculated as follows: number of colonies formed after treatment / (number of cells seeded × PE). For drug radiation combination experiments, cytotoxicity of drug treatment was accounted for by calculating SF as follows: number of colonies formed from each radiation dose / (number of cells seeded × PE × SF of drug-treated cell at 0 Gy).

SNB19 cells [7] = assay: Clonogenic survival assay; type: cell-based; settings: Homo sapiens, SNB-19; SNB19, 48 h post-treatment
Protocol: as §3

DAOY cells [8] = assay: Clonogenic survival assay; type: cell-based; settings: Homo sapiens, 48 h post-treatment
Protocol: as §3, with “For drug radiation combination experiments, cytotoxicity of drug treatment was accounted for by calculating SF as follows: number of colonies formed from each radiation dose / (number of cells seeded × PE × SF of drug-treated cell at 0 Gy).” left out
(§4) Cells were seeded in ultra-low attachment round-bottom 96-well plates (Corning), aggregated by centrifugation (2000 rpm/10 min), and allowed to grow for 4 days under standard culture conditions to form mature spheroids. […] Viability was assessed using the resazurin reduction assay (CellTiter-Blue, Promega) following the manufacturer’s protocol. […] Fluorescence was measured with an excitation wavelength of 560 nm and emission 590 nm on a plate reader. […] Six spheroids per condition were assessed in each experiment. The clonogenicity of cells cultured in spheroids was assessed using conventional 2D clonogenic survival assay as described above. […]

UW228-3 cells [9] = assay: Clonogenic survival assay; type: cell-based; settings: Homo sapiens; UW228-3, 48 h post-treatment
Protocol: as §3, with “For drug radiation combination experiments, cytotoxicity of drug treatment was accounted for by calculating SF as follows: number of colonies formed from each radiation dose / (number of cells seeded × PE × SF of drug-treated cell at 0 Gy).” left out
as §4

SF188 cells [10] = assay: Clonogenic survival assay; type: cell-based; settings: Homo sapiens, SF-188; SF188, 48 h post-treatment
Protocol: as §3
Cells were seeded, in triplicate, in 24-well plates, incubated overnight and transfected with either a pre-designed siRNA directed against human TrxR-1 (SI00050876, target sequence, 5′-[…]-3′, Qiagen) or mock-transfected with a scrambled siRNA (Allstars Negative Control siRNA, Qiagen). […]

TrxR [11] = biological target: T1, TrxR (Homo sapiens, UniProt Q16881); assay: TrxR activity assay (endpoint insulin reduction) on lysates of drug-treated cells; type: cell-based; settings: 1 μM, 4 h; SF188, DAOY and UW228-3 cells
T1 construct: cells were trypsinised, counted and lysed in M-PER protein extraction reagent; endogenous in cells; host or cells: SF188, DAOY, UW228-3
T1 sequence (Q16881 151-649 limits assumed): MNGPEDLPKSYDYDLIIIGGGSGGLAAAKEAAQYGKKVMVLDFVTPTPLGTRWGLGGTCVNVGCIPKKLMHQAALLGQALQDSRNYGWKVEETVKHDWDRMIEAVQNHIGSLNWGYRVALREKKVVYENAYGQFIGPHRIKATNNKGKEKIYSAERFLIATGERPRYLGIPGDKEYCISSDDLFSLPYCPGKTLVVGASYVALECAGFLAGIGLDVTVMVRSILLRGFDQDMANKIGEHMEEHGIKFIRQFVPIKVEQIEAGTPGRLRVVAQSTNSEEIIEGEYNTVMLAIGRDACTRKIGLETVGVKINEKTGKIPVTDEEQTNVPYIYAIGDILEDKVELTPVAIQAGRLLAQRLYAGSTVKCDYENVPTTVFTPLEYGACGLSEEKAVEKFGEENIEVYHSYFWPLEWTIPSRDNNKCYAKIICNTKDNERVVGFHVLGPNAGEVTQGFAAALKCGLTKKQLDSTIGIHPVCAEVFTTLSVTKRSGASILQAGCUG
Protocol: Following incubation, with various concentrations of IQ10 or with 1 μM of auranofin, for 4/48 h, cells were trypsinised, counted and lysed in M-PER protein extraction reagent (Thermo Fisher) for 20 min. Lysates were analysed immediately or stored for future use at − 80 °C. The Bio-Rad protein assay kit (Bio-Rad Laboratories) was used to measure the protein concentration of each sample. TrxR activity was measured in 96-well plates using the endpoint insulin reduction assay as described previously with appropriate modifications. Briefly, the assay mixture contained the following in a final volume of 100 μL HE buffer (100 mM HEPES, pH 7.2; 5 mM EDTA): 80 µg of protein, 2 µM Escherichia coli Trx, 1 mg/ml bovine insulin and 1 mM NADPH. Duplicate samples were used, either with or without exogenous Trx enzyme. […] Absorbance was measured at 405 nm using a microplate reader (FLUOstar OPTIMA, BMG LABTECH). The absorbance of the sample lacking exogenous Trx was subtracted from that of the corresponding sample containing exogenous Trx. The difference in absorbance indicates TrxR function. The amount of functional TrxR was calculated from the standard curve, generated simultaneously, with pure enzymes. The TrxR activity was expressed as the percentage of DMSO-treated control.

TrxR [12] = system: TrxR; design: method as in PMID 17320769; settings: ovarian cancer cells; cited from earlier work
DAOY cells [13] = assay: Intracellular ROS levels (H2DCF-DA flow cytometry); type: cell-based, human; settings: 1 mM H2O2 1 h
Protocol: (§5) Intracellular ROS levels were measured as described previously. Briefly, cells were treated with various concentrations of IQ10 for 4 h either alone or with subsequent exposure to 1 mM H2O2 (ROS positive control) for 1 h. Cells treated with DMSO, at the same dilution ratio as IQ10, were set as negative controls. Cells were then incubated with the cell-permeable dye 2′,7 ′-dichlorodihydrofluorescein diacetate (H2DCF-DA, Sigma) in fresh medium at a final concentration of 1 μM at 37 °C for 30 min. Cells were harvested and intracellular ROS levels assessed by measurement of fluorescence using a MACSquant flow cytometer (Miltenyi Biotec). A gate was set to include only healthy living cells in the analysis. Data were analysed using FlowJo 7.6.1 software (Tree Star) to obtain the median fluorescence intensity (MFI) of each group representing the amount of intracellular ROS generation.

UW228-3 cells [14] = assay: Intracellular ROS levels (H2DCF-DA flow cytometry); type: cell-based, human; settings: UW228-3, 1 mM H2O2 1 h
Protocol: as §5

Cn1nnc2c(C(N)=O)ncn2c1=O [TMZ, temozolomide]
IC50 (KNS42 cells [1]; KNS42, 24 h): > 1000 µM
IC50 (KNS42 cells [1]; KNS42, 48 h): > 1000 µM
IC50 (KNS42 cells [1]; KNS42, 72 h): 731 ± 24.3 µM
IC50 (SNB19 cells [2]; SNB19, 24 h): > 1000 µM
IC50 (SNB19 cells [2]; SNB19, 48 h): > 1000 µM
IC50 (SNB19 cells [2]; SNB19, 72 h): 980 ± 281 µM
IC50 (UW228-3 cells [3]; UW228-3, 24 h): > 1000 µM
IC50 (UW228-3 cells [3]; UW228-3, 48 h): 314 ± 17.8 µM
IC50 (UW228-3 cells [3]; UW228-3, 72 h): 148 ± 14.7 µM
IC50 (DAOY cells [4]; 24 h): 547 ± 11.6 µM
IC50 (DAOY cells [4]; 48 h): 248 ± 49.8 µM
IC50 (DAOY cells [4]; 72 h): 162 ± 14.3 µM
IC50 (SF188 cells [5]; SF188, 24 h): > 1000 µM
IC50 (SF188 cells [5]; SF188, 48 h): 321 ± 86.8 µM
IC50 (SF188 cells [5]; SF188, 72 h): 188 ± 24.1 µM
IC50 (KNS42 cells [6]): 49.5 ± 11.4 µM
IC50 (SNB19 cells [7]): 63.7 ± 10 µM
IC50 (DAOY cells [8]): 464 ± 20.1 µM
IC50 (UW228-3 cells [9]): 93.1 ± 30 µM
IC50 (SF188 cells [10]): 15.2 ± 0.9 µM

CC(=O)OC[C@H]1O[C@@H]([S-])[C@H](OC(C)=O)[C@@H](OC(C)=O)[C@@H]1OC(C)=O.CCP(CC)CC.[Au+] [auranofin]
average TrxR inhibition (TrxR [11]): 83–95%
concentrations inhibiting TrxR (TrxR [12]): nanomolar concentrations

OO [H2O2]
intracellular ROS levels compared to control (DAOY cells [13]): 1.4 fold
intracellular ROS levels compared to control (UW228-3 cells [14]): 1.5 fold
